“And” between values parts separate entries of the source, which are not always exact repeats. Equal entries are not always repeated. Where no end group is shown, it is not given here. Side-chain parts run from the residue outwards. rhodamine‑labelled PEGylated perfluoro‑15‑crown‑5 ether nanoemulsion = not defined here; carboxyfluorescein = N-terminal fluorescence label (CF)
Tests used:
[1] = tested on: murine blood leukocytes; experiment: Ex vivo uptake of mNPPFCs/ConPFCs by murine immune cells, flow cytometry; format: cell-based, mouse; set-up: Basal mNPPFC Uptake, flow cytometry / Stimulated mNPPFC Uptake, flow cytometry: unit not given here; details: for Stimulated mNPPFC Uptake, flow cytometry: LPS-stimulated conditions; for Stimulated mNPPFC Uptake, flow cytometry / Basal mNPPFC Uptake, flow cytometry: individual experiments; for Basal mNPPFC Uptake, flow cytometry: basal conditions
Description: Erythrocytes were lysed by adding a fourfold volume of NH4Cl buffer (pH 7.4). After 10 min of incubation, samples were centrifuged at 350g for 10 min at 20 °C. For isolation of neutrophils from the bone marrow, mice were killed by cervical dislocation, and bones were dissected. Afterward, cells were isolated from the bone marrow using established protocols.
Flow cytometry was performed with a FACSCanto II (BD Biosciences) or LSRFortessa (BD Biosciences). Cells were gated with appropriate FSC–SSC settings and thresholds for excluding debris. To omit dead cells, samples were stained with 1 µg ml^−1 DAPI (Merck). For analysis, cells were gated with FACSDiva 6 or FlowJo 7.1, and MFI and/or the number of positive cells was determined, depending on the experiment.
Human immune cells were discriminated by staining for CD45 (BioLegend, clone HI30), CD11b (BD Biosciences, clone ICRF44), CD14 (BioLegend, clone M5E2) and CD16 (BD Biosciences, clone 3G8) (lymphocytes, CD45^+CD11b^−CD16^−; classical monocytes, CD45^+CD11b^+CD14^++CD16^−; non-classical monocytes, CD45^+CD11b^+CD14^+CD16^++; neutrophils, CD45^+CD11b^+CD16^+). Murine immune cells were discriminated by staining for CD45 (BD Biosciences, clone 30-F11), CD11b (BioLegend, clone M1/70), Ly6G (BD Biosciences, clone 1A8), Ly6C (BioLegend, clone HK1.4) and F4/80 (BioLegend, clone BM8) (lymphocytes, CD45^+CD11b^−Ly6G^−; classical monocytes, CD45^+CD11b^+Ly6G^−Ly6C^hi; non-classical monocytes, CD45^+CD11b^+Ly6G^−Ly6C^lo; neutrophils, CD45^+CD11b^+Ly6G^+; eosinophils, CD45^+CD11b^+Ly6G^+SSC^hiFSC^lo). Both human and murine cells were stained for 20 min at 4 °C, followed by washing with 200 µl MACS buffer.
If not mentioned otherwise, neutrophil-specific peptide or Con (both at 1 µg ml^−1) were incubated for 20 min at 4 °C, while ^NPPFCs or ^ConPFCs were incubated at a concentration of 10 µl ml^−1 for the indicated period of time, followed by two washing steps with 200 µl MACS buffer.
(§1) A total of 1 × 10^6 cells were incubated with 10 µl of the emulsion over a period of 80 min at 37 °C. At distinct time points, 50 µl of the samples were transferred into 2 ml of ice-cold MACS buffer and analyzed for rhodamine fluorescence by flow cytometry.
Extended Data Fig. 2 Specific targeting of neutrophils by ^mNPPFCs. a, Flow cytometric analysis of murine blood leukocytes incubated with ^mNPPFCs over 80 min illustrating their predominant uptake by neutrophils (red) as compared to monocytes (blue) and lymphocytes (gray). b, To further validate specificity, binding of CD177 mAb as well as incorporation of ^mNPPFCs under basal and LPS-stimulated conditions were determined. Almost no binding/uptake into classical or non-classical monocytes as well as macrophages or eosinophils could be detected. […] Subsequently, cells were analyzed by ^1H/^19F MRI. Left: ^1H/^19F MRI of centrifugation tubes with neutrophils treated with ^mNPPFCs (lower panel) or ^ConPFCs (upper panel). The small neutrophil cell pellet is located at the bottom of the tube and can be identified by ^1H MRI (1st column) as slightly darker structure (arrows) compared to the bright phosphate buffer; corresponding ^19F MR images (2nd column) and superimposition of ^1H/^19F datasets (3rd column, with ^19F data color-coded in hot iron). Quantification of ^19F signals (4th column) clearly indicate substantial stronger ^19F uptake in ^mNPPFC-treated neutrophils (red) compared to cells incubated with ^ConPFCs (gray); a.u. = arbitrary units. Data are means ± SD of n = 4 (a), n = 6 (b), n = 6 (c) or n = 3-5 (d) independent experiments; * = […], ** = p < 0.01, *** = p < 0.001, verified by two-way ANOVA (a), one-way ANOVA (b) or two-sided students t-test (c, d). Source data

[2] = tested on: murine neutrophils; experiment: Ex vivo mNPPFC uptake by neutrophils from mice with Matrigel-LPS plug, flow cytometry; format: cell-based, mouse; set-up: ex vivo uptake by murine neutrophils, Ctrl - mNPPFCs, raw data: unit not given here; details: for ex vivo uptake by murine neutrophils, Ctrl - mNPPFCs, raw data: Ctrl mice, single samples #1-#5
Description: To induce defined inflammatory foci, we adopted a recently developed model of localized subcutaneous inflammation. To this end, ice-cold Matrigel (Corning) was doped with LPS (1 µg µl^−1; Salmonella typhimurium, Sigma-Aldrich) and subcutaneously (s.c.) implanted into the neck of the mice. Twenty-four hours after implanting the plug, neutrophils were isolated from the blood and incubated ex vivo with ^mNPPFCs or ^ConPFCs. In separate experiments, 24 h after implantation, ^mNPPFCs or ^ConPFCs were injected intravenously, and immune cells were isolated from the blood. In further experiments, 1 d after plug injection, mice received 1 mmol per kg BW ^mNPPFCs, and, 24 h later, the bone marrow was analyzed by ^1H/^19F MRI. Thereafter, mice were killed, and neutrophils were isolated from the bone marrow for determination of cell numbers. In each case, immune cells were analyzed by flow cytometry.
as §1

[3] = ex vivo, murine blood, flow cytometry, panel A raw data, replicates #1-#3

## mNPPFCs: PEGylated rhodamine-labeled perfluoro-15-crown-5 ether nanoemulsion (maleimide PFCs) coupled with murine neutrophil-specific peptide mNP (carboxyfluorescein-DFYKPMPNLRITGGGC([maleimide‑PEG2000‑DSPE-rhodamine‑labelled PEGylated perfluoro‑15‑crown‑5 ether nanoemulsion]); reading uncertain; also: printed as DFYKPMPNLRIT-GGG-C)
[1]; classical monocytes
  Stimulated mNPPFC Uptake, flow cytometry: 968 and 1199 and 1888 and 792 and 1168 and 1582
  Basal mNPPFC Uptake, flow cytometry: 1007 and 804 and 1494 and 1027 and 800 and 1292
[1]; eosinophils
  Stimulated mNPPFC Uptake, flow cytometry: 391 and 367 and 596 and 415 and 376 and 503
  Basal mNPPFC Uptake, flow cytometry: 880 and 341 and 789 and 755 and 384 and 656
[1]; [3]
  uptake of PFCs, lymphocytes: 97.9 and 103 and 102
  uptake of PFCs, monocytes: 212 and 348 and 265
  uptake of PFCs, neutrophils: 2972 and 1641 and 1658
[1]; macrophages
  Stimulated mNPPFC Uptake, flow cytometry: 1176 and 1188 and 969 and 1223 and 1090 and 1085
  Basal mNPPFC Uptake, flow cytometry: 945 and 874 and 865 and 808 and 877 and 873
[1]; neutrophils
  Stimulated mNPPFC Uptake, flow cytometry: 17100 and 16383 and 15263 and 14366 and 16180 and 12939
  Basal mNPPFC Uptake, flow cytometry: 10186 and 7521 and 8652 and 6287 and 6135 and 7209
[1]; non classical monocytes
  Stimulated mNPPFC Uptake, flow cytometry: 277 and 303 and 242 and 252 and 281 and 240
  Basal mNPPFC Uptake, flow cytometry: 138 and 192 and 152 and 172 and 167
[2]; 24 h after Matrigel-LPS implantation
  ex vivo uptake by murine neutrophils under LPS-stimulated versus unstimulated conditions: more rapid and potent uptake
[2]; time 0
  ex vivo uptake by murine neutrophils, Ctrl - mNPPFCs, raw data: 101 and 127 and 111 and 105
[2]; time 40
  ex vivo uptake by murine neutrophils, Ctrl - mNPPFCs, raw data: 4266 and 3190 and 3194 and 3820 and 4700
